Source: article PMC4140855, “Production of an Attenuated Phenol-Soluble Modulin Variant Unique to the MRSA Clonal Complex 30 Increases Severity of Bloodstream Infection” (PLoS Pathogens, 2014)

Columns and labels:
Format in all cases: cell-based
[1] = tested on: human neutrophils; assay: PMN lysis (LDH release); conditions: 37°C, 1 h; for PMN lysis at high concentration: synthetic peptides at 10 µg/ml or higher
Experimental: Figure 5 PSMα3N22Y has diminished cytolytic activities. (A) PMN lysis of synthetic PSMα3N22Y versus PSMα3. Data are from 2 donors, measured in triplicate each after incubation at 37°C for 1 h. […] (B) Hemolysis of synthetic PSMα3N22Y versus PSMα3. Data are from 2 donors, measured in triplicate, after incubation at 37°C for 1 h. (C, D) PMN lysis and hemolysis, respectively, of culture filtrates from PSMα3N22Y- versus PSMα3-producing strains when expressed on plasmids. pTXΔ16 is the empty control vector. The background strain in all constructs is a PSM-free USA300 strain (LACΔpsmαΔpsmβΔhld). Culture filtrates were diluted 1∶20 for the PMN lysis and 1∶2 for the hemolysis measurements. PMN lysis results are from two and hemolysis data from one donor, with three replicates measured each. (E) PMN lysis of culture filtrates from MRSA252 (252) versus 252*, in which the psmα3 gene (expressing PSMα3N22Y) on the genome was changed to express PSMα3 as present in all non-CC30 strains. […] Culture filtrates were diluted 1∶10. *, p<0.05 (paired t-test). (F) Hemolysis of culture filtrates from the same strains as in (E) at different dilutions. (A–F), *, p<0.05; **, p<0.01; ***, p<0.001; ****, p<0.0001. […]
(§1) Human neutrophils were isolated from venous blood of healthy donors as described, [39]. Neutrophil chemotaxis and Ca^2+ flux were determined as previously described, [24]. […] Chemotaxis of neutrophils was determined using a transwell system (Costar) with analysis of neutrophil migration using fluorescence labeling. Calcium fluxes were monitored as a surrogate marker for chemotaxis since it can be measured more robustly and accurately than chemotaxis. For measurement of Ca^2+ fluxes, 5×10^6 neutrophils/ml were labeled with a fluorescent dye and analyzed with a FACScalibur (Becton Dickinson) as described. […] Measurements of 2,000 events were performed and Ca^2+ flux was expressed as relative fluorescence corrected for buffer controls. […] At the desired times, PMN lysis was determined by release of lactate dehydrogenase (LDH) (Cytotoxicity Detection Kit, Roche Applied Sciences).

[2] = target: T1, FPR2 (Homo sapiens, UniProt P25090); assay: Ca2+ flux in HL60 cells stably transfected with FPR2; conditions: for Activation of FPR2 relative to FPR1 and FPR3: both peptides
T1 construct: expressed in transfected cells; host or cells: HL60 cells, stably transfected
T1 sequence (P25090 1-351): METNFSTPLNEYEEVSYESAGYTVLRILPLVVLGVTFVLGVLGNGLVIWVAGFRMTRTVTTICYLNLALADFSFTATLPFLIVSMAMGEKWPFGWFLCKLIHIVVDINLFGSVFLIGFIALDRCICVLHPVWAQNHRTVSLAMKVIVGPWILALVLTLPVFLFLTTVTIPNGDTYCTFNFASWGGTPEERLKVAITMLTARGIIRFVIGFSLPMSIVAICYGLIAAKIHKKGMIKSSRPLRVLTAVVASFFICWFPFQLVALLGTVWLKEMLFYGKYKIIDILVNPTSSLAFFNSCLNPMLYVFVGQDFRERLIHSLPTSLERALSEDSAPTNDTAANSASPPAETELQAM
Experimental: (§2) Next, we analyzed Ca^2+ flux as a general measure to test for neutrophil activation, as used in previous studies. HL60 cells stably transfected with different FPR receptor genes were used to determine which FPR receptors are differentially activated by PSMα3 versus PSMα3N22Y (Fig. 4A). […] At a peptide concentration of 100 nM, we observed a difference of ∼factor 2 in chemotactic activity comparing the two peptides when FPR1 recognition was inhibited by CHIPS, likely attributable to FPR2-mediated recognition. Owing to the overall ∼10 times lower capacity to stimulate FPR receptors other than FPR2, we observed no chemotaxis at that peptide concentration with addition of the FPR2 blocking agent FLIPr.
(A) Differential activation of FPRs by PSMα3 versus PSMα3N22Y was measured using synthetic peptides and Ca^2+ flux observed in HL60 cells stably transfected with the corresponding FPR genes as readout, using three biological and two technical replicates. The calculated Kd values are shown on the right. […] (B) Ca^2+ flux in human neutrophils upon addition of PSMα3 or PSMα3N22Y and inhibition by FLIPr (FPR2 inhibitor) or CHIPS (FPR1 inhibitor). Neutrophils were from three donors and the measurements were performed in quadruplicate. *, p<0.05; **, p<0.01; ***, p<0.001; ****, p<0.0001 (comparing values obtained with PSMα3 versus corresponding values obtained with PSMα3N22Y). TEXT PRINTED IN THE PICTURE: (A) PSMα3: Kd (nM): FPR1: 615.6 ± 101.2; Kd (nM): FPR2: 11.90 ± 1.90; Kd (nM): FPR3: 1377 ± 285 | (A) PSMα3 N22Y: Kd (nM): FPR1: 3039 ± 682; Kd (nM): FPR2: 10.81 ± 2.38; Kd (nM): FPR3: 953.0 ± 253.9
Synthetic PSM peptides were obtained from commercial vendors at a purity of >95%. They all carry the N-terminal N-formyl methionine as common for PSMs, which are secreted into the medium without a signal peptide. […]
as §1

[3] = tested on: human neutrophils; assay: Human neutrophil chemotaxis / Ca2+ flux with FPR2 inhibited by FLIPr; conditions: FLIPr 0.5 µg/ml, 20 min pre-incubation at room temperature, three donors, quadruplicate; for Chemotaxis with addition of FPR2 blocking agent FLIPr, 100 nM peptide: peptide 100 nM
Experimental: as §2
(A) Differential activation of FPRs by PSMα3 versus PSMα3N22Y was measured using synthetic peptides and Ca^2+ flux observed in HL60 cells stably transfected with the corresponding FPR genes as readout, using three biological and two technical replicates. The calculated Kd values are shown on the right. […] (B) Ca^2+ flux in human neutrophils upon addition of PSMα3 or PSMα3N22Y and inhibition by FLIPr (FPR2 inhibitor) or CHIPS (FPR1 inhibitor). […]
as §1

[4] = Ca2+ flux, transfected HL60 cells

SMILES: CSCC[C@H](NC=O)C(=O)N[C@@H](CCC(=O)O)C(=O)N[C@@H](Cc1ccccc1)C(=O)N[C@H](C(=O)N[C@@H](C)C(=O)N[C@@H](CCCCN)C(=O)N[C@@H](CC(C)C)C(=O)N[C@@H](Cc1ccccc1)C(=O)N[C@@H](CCCCN)C(=O)N[C@@H](Cc1ccccc1)C(=O)N[C@@H](Cc1ccccc1)C(=O)N[C@@H](CCCCN)C(=O)N[C@@H](CC(=O)O)C(=O)N[C@@H](CC(C)C)C(=O)N[C@@H](CC(C)C)C(=O)NCC(=O)N[C@@H](CCCCN)C(=O)N[C@@H](Cc1ccccc1)C(=O)N[C@@H](CC(C)C)C(=O)NCC(=O)N[C@@H](CC(N)=O)C(=O)N[C@@H](CC(N)=O)C(=O)O)C(C)C [PSMα3]
- PMN lysis at high concentration [1]: completely lysed the neutrophils
- Cytolytic capacity toward human neutrophils ([1]; synthetic peptides, LDH release, 2 donors, triplicate, compared to PSMα3N22Y): significantly higher cytolytic capacities
- Activation of FPR2 relative to FPR1 and FPR3 [2, 4]: activated FPR2 much stronger than FPR1 and FPR3
- Chemotaxis with addition of FPR2 blocking agent FLIPr, 100 nM peptide [3]: no chemotaxis

SMILES: CSCC[C@H](NC=O)C(=O)N[C@@H](CCC(=O)O)C(=O)N[C@@H](Cc1ccccc1)C(=O)N[C@H](C(=O)N[C@@H](C)C(=O)N[C@@H](CCCCN)C(=O)N[C@@H](CC(C)C)C(=O)N[C@@H](Cc1ccccc1)C(=O)N[C@@H](CCCCN)C(=O)N[C@@H](Cc1ccccc1)C(=O)N[C@@H](Cc1ccccc1)C(=O)N[C@@H](CCCCN)C(=O)N[C@@H](CC(=O)O)C(=O)N[C@@H](CC(C)C)C(=O)N[C@@H](CC(C)C)C(=O)NCC(=O)N[C@@H](CCCCN)C(=O)N[C@@H](Cc1ccccc1)C(=O)N[C@@H](CC(C)C)C(=O)NCC(=O)N[C@@H](CC(N)=O)C(=O)N[C@@H](Cc1ccc(O)cc1)C(=O)O)C(C)C [PSMα3N22Y]
- PMN lysis at high concentration [1]: completely lysed the neutrophils
- FPR2-activating potential, PSMα3 versus PSMα3N22Y [2, 4]: no difference in the FPR2-activating potential
- Activation of FPR2 relative to FPR1 and FPR3 [2, 4]: activated FPR2 much stronger than FPR1 and FPR3
- Kd ([2]; one site-binding model from Ca2+ flux, synthetic peptides, FPR2-transfected HL60 cells, three biological and two technical replicates, error = standard deviation): 10.8 ± 2.38 nM
- Chemotaxis with addition of FPR2 blocking agent FLIPr, 100 nM peptide [3]: no chemotaxis
- Difference in chemotactic potential between the two peptides with FPR2 blocked, 1 µM peptide ([3]; peptide 1 µM): very strong difference in chemotactic potential
